Measurements taken from patent publication US7262215B2, “N-carbacycle monosubstituted indolocarbazoles as protein kinase inhibitors” (NAD AG, priority 2001, dated 2007).

Experiments:
Assay type in all cases: biochemical
Settings in all cases: 10 μM compound; NA = not active
[1] = target: His tagged ERK2 (Homo sapiens, UniProt P28482); assay: Extracellular signal Regulated Kinase 2 inhibition assay (ERK2), radioactivity-based
Protocol: Inhibition of Extracellular Signal Regulated Kinase 2 (ERK 2) Activity
(§1) The ERK2 kinase activity assay utilizes a radioactivity-based format in a 96-well PCR plate with radioactive readout. The ERK2 activity was assayed in a 25 μL assay mixture containing 25 mM HEPES (pH 7.0), 250 μM ATP, […], 1 mM DTT, 2% DMSO, 150 ng/mL Myelin Basic Protein (MBP, Sigma M-1891), and 13.6 ng/mL His tagged ERK2 (specific activity=38.1 nmol/min*mg). Compounds were screened for inhibition of the ERK2 kinase activity at a concentration of 10 μM. The kinase reaction was allowed to proceed at 37° C. for 30 minutes, then reaction was stopped by the addition of 5 μL of 0.5M EDTA (pH 8). 15 μL of each solution were then spotted onto the corresponding square of a filtermat (8×12 glassfibre mat 90×120 mm. PE-Wallac 1450–421). The filtermat was allowed to dry and washed once with 10% TCA, 2% PPA, 500 mM NaCl each for 30 minutes at rt. Two further washings in 10% TCA and 2% PPA for 30 minutes were performed, then a final 30 minute wash in 99% EtOH at rt was done and the filtermat was air dried. The dry filtermat was then placed in a sample bag with a Meltilex sheet (Melt-on scintillator sheets […], PE-Wallac 1450–441 for filtermat A) over the filtermat. The bag was trimmed to fit into the microplate heatsealer (PE-Wallac 1495–021). The heatsealer is used to melt the Meltilex on the filtermat. The bag containing the filtermat and the melted Meltilex was then placed into a filter cassette and counted using the Microbeta Jet Scintillation and Luminescence Counter PE-Wallac 1450.

[2] = system: PKC (rat brain); assay: Protein Kinase C inhibition assay (PKC), radioactivity-based
Protocol: as §1
Inhibition of Protein Kinase C Activity
The PKA kinase activity assay utilizes a radioactivity-based format in a 96-well PCR plate with radioactive readout. The PKA activity was assayed in a 25 μL assay mixture containing 25 mM HEPES (pH 7.0), 250 μM ATP, 10 mM MgCl2, 1 mM DTT, 1 mM EDTA (pH 8), 2 mM CaCl2, 2% DMSO, 250 ng/mL Histone H1 (Roche 1 004 875), and 165 ng/mL PKC (rat brain, Calbiochem 539494, specific activity=1600 nmol/min*mg), Compounds were screened for inhibition of the PKC kinase activity at a concentration of 10 μM. The kinase reaction was allowed to proceed at 37° C. for 30 minutes, then the reaction was stopped by addition of 5 μL of 0.5M EDTA (pH 8). The remainder of the protocol is identical to the one reported for ERK2.

[3] = target: T1, GSK3β (Homo sapiens, UniProt P49841); assay: Glycogen Synthase Kinase 3β inhibition assay, radioactivity-based
T1 construct: purchased Upstate Discovery
T1 sequence (P49841 whole entry, species assumed): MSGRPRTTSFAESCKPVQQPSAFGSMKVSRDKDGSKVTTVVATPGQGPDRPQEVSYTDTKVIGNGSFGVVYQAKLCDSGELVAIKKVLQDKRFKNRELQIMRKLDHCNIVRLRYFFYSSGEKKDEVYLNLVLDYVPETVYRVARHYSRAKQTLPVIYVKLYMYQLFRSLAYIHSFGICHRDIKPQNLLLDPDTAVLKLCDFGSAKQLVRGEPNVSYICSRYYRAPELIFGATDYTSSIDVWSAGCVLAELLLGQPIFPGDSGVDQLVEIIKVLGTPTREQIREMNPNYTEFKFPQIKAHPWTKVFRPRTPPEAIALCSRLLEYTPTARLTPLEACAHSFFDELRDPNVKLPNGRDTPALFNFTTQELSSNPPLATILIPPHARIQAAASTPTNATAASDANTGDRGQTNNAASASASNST
Protocol: Inhibition of Glycogen Synthase Kinase 3, Activity
The GSK3, kinase activity assay utilizes a radioactivity-based format in a 96-well PCR plate with radioactive readout. The GSK3β activity was assayed in a 25 μL assay mixture containing 8 mM HEPES (pH 7.0), 250 μM ATP, 0.2 mM EDTA (pH 8), 2% DMSO, 250 ng/mL Myelin Basic Protein (MBP, Sigma M-1891), and 12 ng/mL GSK3 (Upstate Discovery, specific activity=607 nmol/min*GS2 peptide, concentration of 6.05 mg/mL). Compounds were screened for inhibition of the GSK3 P kinase activity at a concentration of 10 μM. The kinase reaction was allowed to proceed at 37° C. for 30 minutes, then the reaction was stopped by addition of 5 μL of 0.5M EDTA (pH 8).

[4] = target: T2, PKA (catalytic subunit, bovine heart) (Bos taurus, UniProt P00517); assay: Protein Kinase A inhibition assay (PKA), radioactivity-based
T2 construct: PKA (catalytic subunit, bovine heart, Calbiochem 539486); purchased Calbiochem 539486; host or cells: bovine heart (tissue-derived)
Protocol: as §1
Inhibition of Protein Kinase A Activity
The PKA kinase activity assay utilizes a radioactivity-based format in a 96-well PCR plate with radioactive readout. The PKA activity was assayed in a 25 μL assay mixture containing 25 mM HEPES (pH 7.0), 250 μM ATP, 10 mM MgCl2, 1 mM DTT, 1 mM EBTA (pH 8), 2% DMSO, 250 ng/mL Histone H2B (Roche 223 514), and 2 ng/mL PKA (catalytic subunit, bovine heart, Calbiochem 539486, specific activity=1170 μmol/min*μg). Compounds were screened for inhibition of the PKA kinase activity at a concentration of 10 μM. The kinase reaction was allowed to proceed at 37° C. for 30 minutes, then the reaction was stopped by addition of 5 μL of 0.5M EDTA (pH 8). The remainder of the protocol is identical to the one reported for ERK2.

His tagged ERK2, sequence (P28482 whole entry): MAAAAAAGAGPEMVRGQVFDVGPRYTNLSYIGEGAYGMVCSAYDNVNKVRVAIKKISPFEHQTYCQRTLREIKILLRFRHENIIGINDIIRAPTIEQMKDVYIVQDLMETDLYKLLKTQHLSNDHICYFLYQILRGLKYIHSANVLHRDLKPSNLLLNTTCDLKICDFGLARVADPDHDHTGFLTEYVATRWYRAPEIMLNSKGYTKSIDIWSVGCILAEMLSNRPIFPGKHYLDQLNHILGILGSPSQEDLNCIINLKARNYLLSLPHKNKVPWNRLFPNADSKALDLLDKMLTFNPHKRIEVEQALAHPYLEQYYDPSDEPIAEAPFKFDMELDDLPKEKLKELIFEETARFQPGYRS

Compound | inhibition at 10 µM [1] [%] | % Inhibition PKC [2] [%] | inhibition at 10 µM [3] [%] | inhibition at 10 µM [4] [%]
CCOC(=O)N1C(=O)c2c(c3c4ccccc4n(C4C=C[C@H](NC(C)=O)C4)c3c3[nH]c4ccccc4c23)C1=O (mixture of isomers) [NAD117] | 60 | 68.74 | 25 | –
CC(=O)O[C@H]1C=CC(n2c3ccccc3c3c4c(c5c6ccccc6[nH]c5c32)C(=O)NC4=O)CC1 (mixture of isomers) [NAD106] | 53.4 | 52.00 | 25.4 | 17.1
COc1ccc(CN2C(=O)c3c(c4c5ccccc5n(C5CCC(O)CC5)c4c4[nH]c5ccccc5c34)C2=O)cc1 (centres unmarked) [NAD133] | – | 102.77 | – | –
N[C@H]1C=CC(n2c3ccccc3c3c4c(c5c6ccccc6[nH]c5c32)C(=O)NC4=O)C1 (mixture of isomers) [NAD040] | 97.8 | 81.34 | 69.8 | 98
O=C1NC(=O)c2c1c1c3ccccc3[nH]c1c1c2c2ccccc2n1C1C=C[C@@H](O)C1 (mixture of isomers) [NAD006] | 84.2 | 45.48 | 83.4 | 18.8
N[C@@H]1C=CC(n2c3ccccc3c3c4c(c5c6ccccc6[nH]c5c32)C(=O)NC4=O)C1 (mixture of isomers) [NAD116] | 24.3 | 67.47 | 18.4 | –
O=C1NC(=O)c2c1c1c3ccccc3[nH]c1c1c2c2ccccc2n1C1C=C[C@H](Nc2ccccc2)CC1 (mixture of isomers) [NAD148] | 41.6 | 111.91 | 54.1 | 26.5
O=C1NC(=O)c2c1c1c3ccccc3[nH]c1c1c2c2ccccc2n1C1C=C[C@H](Cl)CC1 (mixture of isomers) [NAD085] | 57.2 | 41.98 | 52.2 | 43.4
CC(=O)O[C@@H]1C=CC(n2c3ccccc3c3c4c(c5c6ccccc6[nH]c5c32)C(=O)NC4=O)CC1 (mixture of isomers) [NAD135] | 43.2 | 84.32 | 60.8 | 17.3

The next lines start with the values.

inhibition at 10 µM [1] [%] | % Inhibition PKC [2] [%] | inhibition at 10 µM [3] [%] | inhibition at 10 µM [4] [%] | Compound
93.3 | 55.37 | 94.1 | 35.2 | O=C1NC(=O)c2c1c1c3ccccc3[nH]c1c1c2c2ccccc2n1C1CC[C@H](O)[C@@H](O)[C@H]1O (mixture of isomers) [NAD149]
37.4 | 58.82 | 61.2 | 19.9 | O=C1NC(=O)c2c1c1c3ccccc3[nH]c1c1c2c2ccccc2n1C1C=C[C@H](O)C1 (mixture of isomers) [NAD162]
23.3 | 72.37 | 30.2 | – | CC(=O)O[C@H]1CC(n2c3ccccc3c3c4c(c5c6ccccc6[nH]c5c32)C(=O)NC4=O)[C@H](O)[C@@H]1O (mixture of isomers) [NAD160]
– | 55.37 | 20.2 | – | CN1C(=O)c2c(c3c4ccccc4n(C4C[C@H](O)[C@@H](O)[C@H]4O)c3c3[nH]c4ccccc4c23)C1=O (mixture of isomers) [NAD157]
